What follows are compounds tested on Wnt1-tdTomato- MEFs (assay: Conversion of MEFs into ciNCCs with M6 medium (Wnt1-tdTomato lineage tracing)). Settings: added to Chir99021, SB431542 and forskolin (FIG. 8C).
Format: cell-based, mouse
Experimental: The basal medium contained knockout DMEM (Gibco), 10% KSR (Gibco), 10% FBS (Gibco), 1% NEAA (Gibco), and 0.1 mM 2-mercaptoethanol (Gibco) supplemented with the small molecules CHIR99021 (3 μM), SB431542 (5 μM), Forskolin (10 μM), VPA ([…]), EPZ004777 (5 μM), and 5-Aza-dC (0.5 μM). The medium was shaken for 30 min to ensure that all components were fully dissolved.
The MEFs were plated at 5×10^4 cells per well on six-well tissue culture plates in fibroblast medium. The culture plates were precoated with fibronectin or laminin for more than 2 hours. After overnight culture, the medium was exchanged with M6 chemical medium, which was refreshed every 2 days. NCC-like cells appeared and increased at days 3 to 5. After 7 to 10 days of induction, FACS was performed to collect Wnt1^+ cells.
For corneal endothelium is derived from NCCs, a two-step method for reprogramming mouse fibroblasts into CEC-like cells using small molecules was designed, in which the first step was to guide mouse embryonic fibroblasts (MEFs) to be chemically reprogrammed into ciNCCs. To identify small molecules with the potential to convert fibroblasts into ciNCCs, we used a lineage tracing strategy to trace the conversion process and excluded any NCCs or progenitor cells from the starting MEFs (FIGS. 8A and 15A). Wnt1-Cre transgenic mice have been validated as a lineage-tracing reporter model for NCC development. In Wnt1-Cre/ROSA26tdTomato mice, tdTomato protein was faithfully expressed in NCCs. MEFs were thus isolated from Wnt1-Cre/ROSA26tdTomato mice at embryonic day 13.5 (E13.5). Because the NCC population was marked with tdTomato, we performed fluorescence-activated cell sorting (FACS) to collect the tdTomato^− population to exclude any NCCs or progenitors (the purified cells are hereinafter referred to as Wnt1-tdTomato-MEFs; FIG. 15B). We confirmed that the Wnt1-tdTomato^− MEFs were also negative for other NCC markers, including Sox10, P75, Pax3, HNK1, and AP2α (FIGS. 15C and 15D). Further, these Wnt1-tdTomato^− MEFs were negative for typical NSC markers, including Sox2, Pax6 and Nestin (data not shown). […]
In the case of `Nc1ncn([C@H]2C[C@H](O)[C@@H](CO)O2)c(=O)n1` [5-Aza-dC], the “effect of individual chemical on induction of Wnt1-tdTomato+ cells” value (from here on “effect of individual chemical”) is reported as “further promoted induction of Wnt1-tdTomato^+ cells”.
For `CC(C)N(CCCNC(=O)Nc1ccc(C(C)(C)C)cc1)C[C@H]1O[C@@H](n2ccc3c(N)ncnc32)[C@H](O)[C@@H]1O` [EPZ004777], the “effect of individual chemical” value was “further promoted induction of Wnt1-tdTomato^+ cells”.
In the case of `CCCC(CCC)C(=O)O` [VPA, Valproic acid], the “effect of individual chemical” value is reported as “further promoted induction of Wnt1-tdTomato^+ cells”.

— US20230416676A1, “Method for Reprogramming Cell” (Celpaten Consulting Partnership (Limited Partnership), priority 2020, published 2023)
